Values of other authors in patent US20120225135A1 (priority 2010, published 2012).

Test system: biofilm
Settings: cited from earlier work

O=CCCCC=O [Glutaraldehyde]
effect on biofilm: no effect on biofilm

chloramines
detachment of biofilms: very effective

CC(=O)OO [peracetic acids]
effect on biofilm detachment: very poor to no effect

O=[O+][O-] [Ozone]
effect on biofilm: kill cells in the biofilm without any detachment of the biofilm

OO [hydrogen peroxide]
effect on biofilm detachment: very poor to no effect
